In patent US8969516B2, “Method of hydrolysis of peptide bond” (priority 2006, dated 2015):

Test: MALDI-TOF screening of Ni^2+ dependent hydrolysis in a combinatorial peptide library
Format: physicochemical
Conditions: Ni^2+ 2 mM, pH 8.2, 10 mM Tris, score=24/tm
How it was run: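 Ni2+ 2 mM, peptide pool 1 mM (total), 10 mM Tris pH 8.2; 37 °C and 45 °C in parallel; MS aliquots at 2/4/6/8 h; products detected visually. X: all proteinogenic residues except Asp, Glu, Cys; Z: all except Cys.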

[1] = CH3CO-Gly-Ala-Ser-X-His-Z-Lys-Phe-Leu-NH2 library, 37° C.
[2] = CH3CO-Gly-Ala-Ser-X-His-Z-Lys-Phe-Leu-NH2 library, 45° C.
[3] = CH3CO-Gly-Ala-Thr-X-His-Z-Lys-Phe-Leu-NH2 library, 37° C.
[4] = CH3CO-Gly-Ala-Thr-X-His-Z-Lys-Phe-Leu-NH2 library, 45° C.

Row | Substance | hydrolysis score from MALDI-TOF screening [1] | hydrolysis score from MALDI-TOF screening [2] | hydrolysis score from MALDI-TOF screening [3] | hydrolysis score from MALDI-TOF screening [4]
1 | Ac-GASWHNKFL-NH2 [SWHN] | 0 (a score of 0 if no trace of the product of hydrolysis was seen after 8 hours of incubation) | 0 (a score of 0 if no trace of the product of hydrolysis was seen after 8 hours of incubation) | – | –
2 | Ac-GATTHKKFL-NH2 [TTHK] | – | – | 0 (a score of 0 if no trace of the product of hydrolysis was seen after 8 hours of incubation) | 0 (a score of 0 if no trace of the product of hydrolysis was seen after 8 hours of incubation)
3 | Ac-GASSHTKFL-NH2 [SSHT] | 0 (a score of 0 if no trace of the product of hydrolysis was seen after 8 hours of incubation) | 0 (a score of 0 if no trace of the product of hydrolysis was seen after 8 hours of incubation) | – | –
4 | Ac-GATYHSKFL-NH2 [TYHS] | – | – | 0 (a score of 0 if no trace of the product of hydrolysis was seen after 8 hours of incubation) | 0 (a score of 0 if no trace of the product of hydrolysis was seen after 8 hours of incubation)
5 | Ac-GATNHDKFL-NH2 [TNHD] | – | – | 0 (a score of 0 if no trace of the product of hydrolysis was seen after 8 hours of incubation) | 0 (a score of 0 if no trace of the product of hydrolysis was seen after 8 hours of incubation)
6 | Ac-GATWHHKFL-NH2 [TWHH] | – | – | 0 (a score of 0 if no trace of the product of hydrolysis was seen after 8 hours of incubation) | 0 (a score of 0 if no trace of the product of hydrolysis was seen after 8 hours of incubation)
7 | Ac-GASFHQKFL-NH2 [SFHQ] | 0 (a score of 0 if no trace of the product of hydrolysis was seen after 8 hours of incubation) | 0 (a score of 0 if no trace of the product of hydrolysis was seen after 8 hours of incubation) | – | –
8 | Ac-GASQHLKFL-NH2 [SQHL] | 6 (a score of 6 for detection at 4 hours) | 6 (a score of 6 for detection at 4 hours) | – | –
9 | Ac-GATYHYKFL-NH2 [TYHY] | – | – | 0 (a score of 0 if no trace of the product of hydrolysis was seen after 8 hours of incubation) | 0 (a score of 0 if no trace of the product of hydrolysis was seen after 8 hours of incubation)
10 | Ac-GATSHFKFL-NH2 [TSHF] | – | – | 0 (a score of 0 if no trace of the product of hydrolysis was seen after 8 hours of incubation) | 0 (a score of 0 if no trace of the product of hydrolysis was seen after 8 hours of incubation)
11 | Ac-GATHHLKFL-NH2 [THHL] | – | – | 3 (a score of 3 for detection at 8 hours) | 12 (a score of 12, if it was seen to be partially hydrolysed at 2 hours)
12 | Ac-GATLHDKFL-NH2 [TLHD] | – | – | 0 (a score of 0 if no trace of the product of hydrolysis was seen after 8 hours of incubation) | 0 (a score of 0 if no trace of the product of hydrolysis was seen after 8 hours of incubation)
13 | Ac-GATGHKKFL-NH2 [TGHK] | – | – | 0 (a score of 0 if no trace of the product of hydrolysis was seen after 8 hours of incubation) | 0 (a score of 0 if no trace of the product of hydrolysis was seen after 8 hours of incubation)
14 | Ac-GATAHTKFL-NH2 [TAHT] | – | – | 0 (a score of 0 if no trace of the product of hydrolysis was seen after 8 hours of incubation) | 0 (a score of 0 if no trace of the product of hydrolysis was seen after 8 hours of incubation)
15 | Ac-GASFHDKFL-NH2 [SFHD] | 0 (a score of 0 if no trace of the product of hydrolysis was seen after 8 hours of incubation) | 0 (a score of 0 if no trace of the product of hydrolysis was seen after 8 hours of incubation) | – | –
16 | Ac-GATTHQKFL-NH2 [TTHQ] | – | – | 0 (a score of 0 if no trace of the product of hydrolysis was seen after 8 hours of incubation) | 0 (a score of 0 if no trace of the product of hydrolysis was seen after 8 hours of incubation)
17 | Ac-GASRHSKFL-NH2 [SRHS] | 3 (a score of 3 for detection at 8 hours) | 4 (a score of 4 for detection at 6 hours) | – | –
18 | Ac-GATIHGKFL-NH2 [TIHG] | – | – | 0 (a score of 0 if no trace of the product of hydrolysis was seen after 8 hours of incubation) | 0 (a score of 0 if no trace of the product of hydrolysis was seen after 8 hours of incubation)
19 | Ac-GATLHFKFL-NH2 [TLHF] | – | – | 0 (a score of 0 if no trace of the product of hydrolysis was seen after 8 hours of incubation) | 0 (a score of 0 if no trace of the product of hydrolysis was seen after 8 hours of incubation)

Row | Substance | hydrolysis score from MALDI-TOF screening [1] | hydrolysis score from MALDI-TOF screening [2] | hydrolysis score from MALDI-TOF screening [3] | hydrolysis score from MALDI-TOF screening [4]
20 | Ac-GATFHRKFL-NH2 [TFHR] | – | – | 3 (a score of 3 for detection at 8 hours) | 4 (a score of 4 for detection at 6 hours)
21 | Ac-GATFHDKFL-NH2 [TFHD] | – | – | 0 (a score of 0 if no trace of the product of hydrolysis was seen after 8 hours of incubation) | 0 (a score of 0 if no trace of the product of hydrolysis was seen after 8 hours of incubation)
22 | Ac-GASVHRKFL-NH2 [SVHR] | 3 (a score of 3 for detection at 8 hours) | 3 (a score of 3 for detection at 8 hours) | – | –
23 | Ac-GATIHNKFL-NH2 [TIHN] | – | – | 0 (a score of 0 if no trace of the product of hydrolysis was seen after 8 hours of incubation) | 0 (a score of 0 if no trace of the product of hydrolysis was seen after 8 hours of incubation)
24 | Ac-GASNHKKFL-NH2 [SNHK] | 4 (a score of 4 for detection at 6 hours) | 4 (a score of 4 for detection at 6 hours) | – | –
25 | Ac-GATGHAKFL-NH2 [TGHA] | – | – | 0 (a score of 0 if no trace of the product of hydrolysis was seen after 8 hours of incubation) | 0 (a score of 0 if no trace of the product of hydrolysis was seen after 8 hours of incubation)
26 | Ac-GASHHYKFL-NH2 [SHHY] | 3 (a score of 3 for detection at 8 hours) | 4 (a score of 4 for detection at 6 hours) | – | –
27 | Ac-GASQHPKFL-NH2 [SQHP] | 0 (a score of 0 if no trace of the product of hydrolysis was seen after 8 hours of incubation) | 0 (a score of 0 if no trace of the product of hydrolysis was seen after 8 hours of incubation) | – | –
28 | Ac-GATWHWKFL-NH2 [TWHW] | – | – | 3 (a score of 3 for detection at 8 hours) | 4 (a score of 4 for detection at 6 hours)
29 | Ac-GATTHIKFL-NH2 [TTHI] | – | – | 0 (a score of 0 if no trace of the product of hydrolysis was seen after 8 hours of incubation) | 0 (a score of 0 if no trace of the product of hydrolysis was seen after 8 hours of incubation)
30 | Ac-GASGHEKFL-NH2 [SGHE] | 0 (a score of 0 if no trace of the product of hydrolysis was seen after 8 hours of incubation) | 0 (a score of 0 if no trace of the product of hydrolysis was seen after 8 hours of incubation) | – | –
31 | Ac-GASNHAKFL-NH2 [SNHA] | 0 (a score of 0 if no trace of the product of hydrolysis was seen after 8 hours of incubation) | 0 (a score of 0 if no trace of the product of hydrolysis was seen after 8 hours of incubation) | – | –
32 | Ac-GATVHAKFL-NH2 [TVHA] | – | – | 0 (a score of 0 if no trace of the product of hydrolysis was seen after 8 hours of incubation) | 0 (a score of 0 if no trace of the product of hydrolysis was seen after 8 hours of incubation)
33 | Ac-GASHHMKFL-NH2 [SHHM] | 0 (a score of 0 if no trace of the product of hydrolysis was seen after 8 hours of incubation) | 0 (a score of 0 if no trace of the product of hydrolysis was seen after 8 hours of incubation) | – | –
34 | Ac-GATKHQKFL-NH2 [TKHQ] | – | – | 0 (a score of 0 if no trace of the product of hydrolysis was seen after 8 hours of incubation) | 0 (a score of 0 if no trace of the product of hydrolysis was seen after 8 hours of incubation)
35 | Ac-GASKHVKFL-NH2 [SKHV] | 4 (a score of 4 for detection at 6 hours) | 6 (a score of 6 for detection at 4 hours) | – | –
36 | Ac-GATYHDKFL-NH2 [TYHD] | – | – | 0 (a score of 0 if no trace of the product of hydrolysis was seen after 8 hours of incubation) | 0 (a score of 0 if no trace of the product of hydrolysis was seen after 8 hours of incubation)
37 | Ac-GASFHPKFL-NH2 [SFHP] | 0 (a score of 0 if no trace of the product of hydrolysis was seen after 8 hours of incubation) | 0 (a score of 0 if no trace of the product of hydrolysis was seen after 8 hours of incubation) | – | –
38 | Ac-GASYHNKFL-NH2 [SYHN] | 0 (a score of 0 if no trace of the product of hydrolysis was seen after 8 hours of incubation) | 0 (a score of 0 if no trace of the product of hydrolysis was seen after 8 hours of incubation) | – | –
